ChEMBL document CHEMBL4138123, “Design, synthesis and biological evaluation of novel pyrazolochalcones as potential modulators of PI3K/Akt/mTOR pathway and inducers of apoptosis in breast cancer cells” (Eur J Med Chem, 2017)

Tests used:
Assay type in all cases: functional
UACC-62 = assay: Cytotoxicity against human UACC62 cells assessed as cell growth at 100 uM after 48 hrs by sulforhodamine B assay relative to control; conditions: UACC-62, 48 h, read-out: Activity
NCI-H322M [1] = assay: Cytotoxicity against human NCI-H322M cells assessed as cell growth at 0.1 uM after 48 hrs by sulforhodamine B assay relative to control; conditions: read-out: Activity
T47D [2] = assay: Cytotoxicity against human T47D cells assessed as growth inhibition after 48 hrs by sulforhodamine B assay
HOP-62 [3] = assay: Cytotoxicity against human HOP62 cells assessed as cell growth at 0.01 uM after 48 hrs by sulforhodamine B assay relative to control; conditions: HOP-62, 48 h, read-out: Activity
SNB-19 = assay: Cytotoxicity against human SNB19 cells assessed as cell growth at 0.1 uM after 48 hrs by sulforhodamine B assay relative to control; conditions: SNB-19, 48 h, read-out: Activity
MDA-MB-435 = assay: Cytotoxicity against human MDA-MB-435 cells assessed as growth inhibition after 48 hrs by sulforhodamine B assay; conditions: MDA-MB-435, 48 h
NCI-H226 = assay: Cytotoxicity against human NCI-H226 cells assessed as cell growth at 1 uM after 48 hrs by sulforhodamine B assay relative to control; conditions: NCI-H226, 48 h, read-out: Activity
MCF7 [4] = assay: Cytotoxicity against human MCF7 cells assessed as growth inhibition after 48 hrs by sulforhodamine B assay; conditions: MCF7, 48 h
CCRF-CEM = assay: Cytotoxicity against human CCRF-CEM cells assessed as cell growth at 0.1 uM after 48 hrs by sulforhodamine B assay relative to control; conditions: read-out: Activity
HCT-15 [5] = assay: Cytotoxicity against human HCT15 cells assessed as cell growth at 100 uM after 48 hrs by sulforhodamine B assay relative to control; conditions: HCT-15, 48 h, read-out: Activity
PC-3 = assay: Cytotoxicity against human PC3 cells assessed as cell growth at 1 uM after 48 hrs by sulforhodamine B assay relative to control; conditions: PC-3, 48 h, read-out: Activity
NCI/ADR-RES [6] = assay: Cytotoxicity against human NCI/ADR-RES cells assessed as cell growth at 1 uM after 48 hrs by sulforhodamine B assay relative to control; conditions: read-out: Activity
HOP-62 [7] = assay: Cytotoxicity against human HOP62 cells assessed as cell growth at 1 uM after 48 hrs by sulforhodamine B assay relative to control; conditions: HOP-62, 48 h, read-out: Activity
OVCAR-4 = assay: Cytotoxicity against human OVCAR4 cells assessed as cell growth at 0.01 uM after 48 hrs by sulforhodamine B assay relative to control; conditions: OVCAR-4, 48 h, read-out: Activity
HCC 2998 [8] = assay: Cytotoxicity against human HCC2998 cells assessed as cell growth at 1 uM after 48 hrs by sulforhodamine B assay relative to control; conditions: HCC 2998, 48 h, read-out: Activity
A498 [9] = assay: Cytotoxicity against human A498 cells assessed as growth inhibition after 48 hrs by sulforhodamine B assay; conditions: A498, 48 h
SN12C [10] = assay: Cytotoxicity against human SN12C cells assessed as growth inhibition after 48 hrs by sulforhodamine B assay
SW-620 [11] = assay: Cytotoxicity against human SW620 cells assessed as growth inhibition after 48 hrs by sulforhodamine B assay; conditions: SW-620, 48 h
A498 [12] = assay: Cytotoxicity against human A498 cells assessed as cell growth at 0.1 uM after 48 hrs by sulforhodamine B assay relative to control; conditions: A498, 48 h, read-out: Activity
T47D [13] = assay: Cytotoxicity against human T47D cells assessed as cell growth at 1 uM after 48 hrs by sulforhodamine B assay relative to control; conditions: read-out: Activity
Hs-578T [14] = assay: Cytotoxicity against human Hs 578T cells assessed as cell growth at 100 uM after 48 hrs by sulforhodamine B assay relative to control; conditions: read-out: Activity
Hs-578T [15] = assay: Cytotoxicity against human Hs 578T cells assessed as growth inhibition after 48 hrs by sulforhodamine B assay
786-0 = assay: Cytotoxicity against human 786-0 cells assessed as cell growth at 10 uM after 48 hrs by sulforhodamine B assay relative to control; conditions: 786-0, 48 h, read-out: Activity
SW-620 [16] = assay: Cytotoxicity against human SW620 cells assessed as cell growth at 10 uM after 48 hrs by sulforhodamine B assay relative to control; conditions: SW-620, 48 h, read-out: Activity
HCT-116 [17] = assay: Cytotoxicity against human HCT116 cells assessed as cell growth at 0.01 uM after 48 hrs by sulforhodamine B assay relative to control; conditions: HCT-116, 48 h, read-out: Activity
MDA-MB-231 = assay: Cytotoxicity against human MDA-MB-231 cells assessed as cell growth at 0.01 uM after 48 hrs by sulforhodamine B assay relative to control; conditions: MDA-MB-231, 48 h, read-out: Activity
SK-MEL-5 = assay: Cytotoxicity against human SK-MEL-5 cells assessed as cell growth at 10 uM after 48 hrs by sulforhodamine B assay relative to control; conditions: SK-MEL-5, 48 h, read-out: Activity
HCT-15 [18] = assay: Cytotoxicity against human HCT15 cells assessed as cell growth at 10 uM after 48 hrs by sulforhodamine B assay relative to control; conditions: HCT-15, 48 h, read-out: Activity
OVCAR-5 = assay: Cytotoxicity against human OVCAR5 cells assessed as cell growth at 1 uM after 48 hrs by sulforhodamine B assay relative to control; conditions: OVCAR-5, 48 h, read-out: Activity
NCI-H322M [19] = assay: Cytotoxicity against human NCI-H322M cells assessed as cell growth at 100 uM after 48 hrs by sulforhodamine B assay relative to control; conditions: read-out: Activity
HCC 2998 [20] = assay: Cytotoxicity against human HCC2998 cells assessed as growth inhibition after 48 hrs by sulforhodamine B assay; conditions: HCC 2998, 48 h
SN12C [21] = assay: Cytotoxicity against human SN12C cells assessed as cell growth at 0.01 uM after 48 hrs by sulforhodamine B assay relative to control; conditions: read-out: Activity
HCT-116 [22] = assay: Cytotoxicity against human HCT116 cells assessed as cell growth at 10 uM after 48 hrs by sulforhodamine B assay relative to control; conditions: HCT-116, 48 h, read-out: Activity
A498 [23] = assay: Cytotoxicity against human A498 cells assessed as cell growth at 100 uM after 48 hrs by sulforhodamine B assay relative to control; conditions: A498, 48 h, read-out: Activity
MCF7 [24] = assay: Cytotoxicity against human MCF7 cells assessed as cell growth at 100 uM after 48 hrs by sulforhodamine B assay relative to control; conditions: MCF7, 48 h, read-out: Activity
NCI/ADR-RES [25] = assay: Cytotoxicity against human NCI/ADR-RES cells assessed as growth inhibition after 48 hrs by sulforhodamine B assay

For `COc1cc2c(cc1OC)C(=O)/C(=C/c1cc(-c3ccc4c(c3)OCO4)n[nH]1)C2`, the growth at 100 µM (UACC-62) was -88%, the growth at 0.1 µM (NCI-H322M [1]) was 92% and the GI50 (T47D [2]) was 1.31 µM. The LC50 (T47D [2]) was 5.62 µM, the TGI (T47D [2]) was 2.72 µM and the growth at 0.01 µM (HOP-62 [3]) was 92%. It also gave a growth at 0.1 µM (SNB-19) of 98%, a GI50 (MDA-MB-435) of 1.73 µM and an LC50 (MDA-MB-435) of 6.18 µM. For the same compound, the TGI (MDA-MB-435) was 3.27 µM, the growth at 1 µM (NCI-H226) was 79% and the GI50 (MCF7 [4]) was 0.33 µM. For the same compound, the LC50 (MCF7 [4]) was 4.52 µM, the TGI (MCF7 [4]) was 1.42 µM and the growth at 0.1 µM (CCRF-CEM) was 96%. It also gave a growth at 100 µM (HCT-15 [5]) of -69%, a growth at 1 µM (PC-3) of 65% and a growth at 1 µM (NCI/ADR-RES [6]) of 86%. The growth at 1 µM (HOP-62 [7]) was 82%, the growth at 0.01 µM (OVCAR-4) was 101% and the growth at 1 µM (HCC 2998 [8]) was 102%. The GI50 (A498 [9]) was 1.33 µM, the LC50 (A498 [9]) was 6 µM and the TGI (A498 [9]) was 2.83 µM. It also gave a GI50 (SN12C [10]) of 1.59 µM, an LC50 (SN12C [10]) of 5.62 µM and a TGI (SN12C [10]) of 2.99 µM. The GI50 (SW-620 [11]) was 1.35 µM, the LC50 (lethal concentration, 50% net cell kill) (SW-620 [11]) was 8.96 µM and the TGI (SW-620 [11]) was 3.47 µM. It also gave a growth at 0.1 µM (A498 [12]) of 80%, a growth at 1 µM (T47D [13]) of 69% and a growth at 100 µM (Hs-578T [14]) of -15%. For the same compound, the GI50 (Hs-578T [15]) was 2.61 µM, the LC50 (Hs-578T [15]) was > 100 µM and the TGI (Hs-578T [15]) was 8.08 µM. It also gave a growth at 10 µM (786-0) of -98%, a growth at 10 µM (SW-620 [16]) of -56% and a growth at 0.01 µM (HCT-116 [17]) of 105%. It also gave a growth at 0.01 µM (MDA-MB-231) of 106%, a growth at 10 µM (SK-MEL-5) of -98% and a growth at 10 µM (HCT-15 [18]) of -69%. The growth at 1 µM (OVCAR-5) was 84%, the growth at 100 µM (NCI-H322M [19]) was -91% and the GI50 (HCC 2998 [20]) was 1.88 µM. The LC50 (HCC 2998 [20]) was 6.29 µM, the TGI (HCC 2998 [20]) was 3.44 µM and the growth at 0.01 µM (SN12C [21]) was 95%. It also gave a growth at 10 µM (HCT-116 [22]) of -75%, a growth at 100 µM (A498 [23]) of -97% and a growth at 100 µM (MCF7 [24]) of -72%. For the same compound, the GI50 (NCI/ADR-RES [25]) was 2.25 µM, the LC50 (NCI/ADR-RES [25]) was > 100 µM and the TGI (NCI/ADR-RES [25]) was 6.87 µM.

In the case of `COc1ccc(-c2cc(/C=C/C(=O)c3ccc(OC)c(OC)c3)[nH]n2)cc1`, the growth at 100 µM (UACC-62) was -100%, the growth at 0.1 µM (NCI-H322M [1]) was 94% and the GI50 (T47D [2]) was 1.6 µM. It also gave an LC50 (T47D [2]) of 24.9 µM, a TGI (T47D [2]) of 5.15 µM and a growth at 0.01 µM (HOP-62 [3]) of 97%. It also gave a growth at 0.1 µM (SNB-19) of 90%, a GI50 (MDA-MB-435) of 1.84 µM and an LC50 (MDA-MB-435) of 8.17 µM. For the same compound, the TGI (MDA-MB-435) was 3.88 µM, the growth at 1 µM (NCI-H226) was 76% and the GI50 (MCF7 [4]) was 0.41 µM. The LC50 (MCF7 [4]) was 5.11 µM, the TGI (MCF7 [4]) was 1.76 µM and the growth at 0.1 µM (CCRF-CEM) was 97%. For the same compound, the growth at 100 µM (HCT-15 [5]) was -92%, the growth at 1 µM (PC-3) was 71% and the growth at 1 µM (NCI/ADR-RES [6]) was 91%. The growth at 1 µM (HOP-62 [7]) was 94%, the growth at 0.01 µM (OVCAR-4) was 88% and the growth at 1 µM (HCC 2998 [8]) was 102%. For the same compound, the GI50 (A498 [9]) was 1.42 µM, the LC50 (A498 [9]) was 8.87 µM and the TGI (A498 [9]) was 3.55 µM. The GI50 (SN12C [10]) was 1.64 µM, the LC50 (SN12C [10]) was 8.73 µM and the TGI (SN12C [10]) was 3.78 µM. The GI50 (SW-620 [11]) was 1.35 µM, the LC50 (lethal concentration, 50% net cell kill) (SW-620 [11]) was 9.54 µM and the TGI (SW-620 [11]) was 3.59 µM. The growth at 0.1 µM (A498 [12]) was 79%, the growth at 1 µM (T47D [13]) was 70% and the growth at 100 µM (Hs-578T [14]) was -26%. The GI50 (Hs-578T [15]) was 3.38 µM, the LC50 (Hs-578T [15]) was > 100 µM and the TGI (Hs-578T [15]) was 29 µM. It also gave a growth at 10 µM (786-0) of -89%, a growth at 10 µM (SW-620 [16]) of -52% and a growth at 0.01 µM (HCT-116 [17]) of 97%. For the same compound, the growth at 0.01 µM (MDA-MB-231) was 98%, the growth at 10 µM (SK-MEL-5) was -66% and the growth at 10 µM (HCT-15 [18]) was -53%. For the same compound, the growth at 1 µM (OVCAR-5) was 77%, the growth at 100 µM (NCI-H322M [19]) was -98% and the GI50 (HCC 2998 [20]) was 2.02 µM. For the same compound, the LC50 (HCC 2998 [20]) was 7.81 µM, the TGI (HCC 2998 [20]) was 3.97 µM and the growth at 0.01 µM (SN12C [21]) was 95%. It also gave a growth at 10 µM (HCT-116 [22]) of -78%, a growth at 100 µM (A498 [23]) of -90% and a growth at 100 µM (MCF7 [24]) of -100%. For the same compound, the GI50 (NCI/ADR-RES [25]) was 3.44 µM, the LC50 (NCI/ADR-RES [25]) was > 100 µM and the TGI (NCI/ADR-RES [25]) was 24.8 µM.
